{"source": "patent US20200199689A1", "about": "“Method for Predicting Effectiveness of Angiogenesis Inhibitor” (Eisai R&D Management Co., Ltd., priority 2011, published 2020)", "tested_on": "human melanoma cell line grafted mouse models", "test": "Anti-tumor effect of angiogenesis inhibitor on mouse model grafted with melanoma cell line", "assay_type": "in vivo, nude mouse", "conditions": "100 mg/kg/day orally, 7th day after initiation of administration", "method": "The human melanoma cell lines used in Example 1 were respectively cultured in the mediums shown in the column of “Culture medium” (containing 10% FBS) of Table 6 until about 80% confluency was obtained (in an incubator under 5% carbon dioxide gas). After culturing, cells were collected by trypsin-EDTA treatment in accordance with a conventional method. The cells were suspended with a phosphate buffer or a matrigel solution (mixture of phosphate buffer and matrigel in a common ratio of 1:1) to prepare suspension solution of 1×10^8 cells/mL or 5×10^7 cells/mL. The cell suspension (0.1 mL) was subcutaneously grafted to the side of the body of each nude mouse. In this manner, human melanoma cell line grafted mouse models were prepared.\nAfter grafting, from the time point when a tumor volume reached about 200 mm^3, a mesylate of 4-(3-chloro-4-(cyclopropylaminocarbonyl)aminophenoxy)-7-methoxy-6-quinolinecarboxamide (hereinafter referred to as E7080) (100 mg/kg/day) was orally administered. The major axis and minor axis of the tumor were measured everyday by Digimatic Caliper (Mitsutoyo). The tumor volume and specific tumor volume were calculated in accordance with the following formula and thereby the anti-tumor effect (ΔT/C) of an angiogenesis inhibitor on the mouse model was measured.\nTumor volume (TV)=tumor longest diameter (mm)×tumor short diameter^2 (mm^2)/2\nAnti-tumor effect (ΔT/C)=(TV of medicinal drug administered group−TV before initiation of administration)/(TV of control group−TV before initiation of administration)×100\nIn FIG. 1, the same cell lines used in Example 1 were used.", "data": [{"compound": "COc1cc2nccc(Oc3ccc(NC(=O)NC4CC4)c(Cl)c3)c2cc1C(N)=O", "note": "[E7080, 4-(3-Chloro-4-(cyclopropylaminocarbonyl)aminophenoxy)-7-methoxy-6-quinolinecarboxamide]", "values": [{"measurement": "Anti-tumor effect (ΔT/C)", "setting": "melanoma cells where BRAF has a mutation and PTEN has no mutation", "result": 45, "unit": "%"}, {"measurement": "Anti-tumor effect (ΔT/C)", "setting": "melanoma cells where both of BRAF and PTEN are wild type", "result": 16, "unit": "%"}, {"measurement": "Anti-tumor effect (ΔT/C)", "setting": "melanoma cells where both of BRAF and PTEN have a mutation or loss of expression", "result": 23, "unit": "%"}]}]}
